Data reported in article PMC3204160 (Journal of natural products, 2011).
Read-outs that look alike come from different tables or passages of the source.

Tests used:
[1] = test system: NCI-60 human cancer cell lines; test: NCI-60 anticancer drug screen and COMPARE analysis; type: cell-based; conditions: for over 90% of the tested NCI-60 cell lines; five concentrations 10^−4 to 10^−8 M
[2] = target: T1, recombinant human HDAC6 (Homo sapiens, UniProt Q9UBN7); test: biochemical; type: biochemical; conditions: for potency towards HDAC6, times less than to HDAC1–3: reduced form
T1 sequence (Q9UBN7 1-1215): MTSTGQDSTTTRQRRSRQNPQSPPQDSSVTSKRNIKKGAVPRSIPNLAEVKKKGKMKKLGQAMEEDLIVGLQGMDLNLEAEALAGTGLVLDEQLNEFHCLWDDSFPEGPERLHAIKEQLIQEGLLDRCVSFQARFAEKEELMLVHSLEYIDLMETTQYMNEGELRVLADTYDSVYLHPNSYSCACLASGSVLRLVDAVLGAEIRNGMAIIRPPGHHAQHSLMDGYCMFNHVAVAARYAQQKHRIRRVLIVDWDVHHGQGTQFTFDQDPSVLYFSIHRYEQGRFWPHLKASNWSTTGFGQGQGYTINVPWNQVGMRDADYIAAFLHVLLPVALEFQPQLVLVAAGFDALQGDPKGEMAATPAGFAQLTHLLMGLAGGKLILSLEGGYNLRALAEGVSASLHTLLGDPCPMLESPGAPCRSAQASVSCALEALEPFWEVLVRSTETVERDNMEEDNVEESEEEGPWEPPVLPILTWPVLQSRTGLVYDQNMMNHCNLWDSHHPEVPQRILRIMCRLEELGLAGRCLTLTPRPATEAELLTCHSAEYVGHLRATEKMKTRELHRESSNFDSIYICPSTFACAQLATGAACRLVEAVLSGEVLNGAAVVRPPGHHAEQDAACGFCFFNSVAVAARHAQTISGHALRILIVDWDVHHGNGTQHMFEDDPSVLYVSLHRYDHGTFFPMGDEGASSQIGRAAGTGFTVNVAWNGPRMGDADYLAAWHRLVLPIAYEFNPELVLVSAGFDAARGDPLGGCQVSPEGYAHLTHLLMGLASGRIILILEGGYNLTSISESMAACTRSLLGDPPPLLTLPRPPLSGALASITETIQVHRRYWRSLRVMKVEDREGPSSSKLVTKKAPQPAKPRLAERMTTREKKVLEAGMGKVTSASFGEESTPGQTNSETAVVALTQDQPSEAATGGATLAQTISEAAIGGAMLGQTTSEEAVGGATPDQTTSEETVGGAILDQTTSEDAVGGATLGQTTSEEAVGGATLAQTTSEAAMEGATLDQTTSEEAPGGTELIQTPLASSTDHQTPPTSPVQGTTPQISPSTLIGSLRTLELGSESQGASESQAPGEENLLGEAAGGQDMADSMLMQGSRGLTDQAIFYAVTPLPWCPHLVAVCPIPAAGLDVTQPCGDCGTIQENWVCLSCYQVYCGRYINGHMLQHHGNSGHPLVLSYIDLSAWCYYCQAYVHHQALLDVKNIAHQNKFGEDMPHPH

[3] = target: T2, recombinant human HDAC8 (Homo sapiens, UniProt Q9BY41); test: biochemical; type: biochemical
T2 sequence (Q9BY41 1-377): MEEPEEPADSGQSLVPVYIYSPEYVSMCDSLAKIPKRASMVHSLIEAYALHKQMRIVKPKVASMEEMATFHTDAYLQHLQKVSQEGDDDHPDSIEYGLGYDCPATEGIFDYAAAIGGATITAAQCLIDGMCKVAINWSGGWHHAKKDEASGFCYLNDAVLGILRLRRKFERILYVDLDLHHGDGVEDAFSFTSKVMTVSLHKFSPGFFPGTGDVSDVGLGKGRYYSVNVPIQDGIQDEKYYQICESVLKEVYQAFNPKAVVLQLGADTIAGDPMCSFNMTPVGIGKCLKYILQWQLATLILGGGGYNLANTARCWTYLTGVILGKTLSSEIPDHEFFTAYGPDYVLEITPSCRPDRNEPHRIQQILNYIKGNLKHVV

[4] = target: recombinant human HDAC1 (Homo sapiens, UniProt Q13547); test: Two-step fluorogenic HDAC inhibition assay, HDAC1; type: biochemical; conditions: for times less active against HDAC1 than against HDAC3/N-CoR2: natural/oxidized prodrug form, range given for HDAC1 and HDAC2 together
recombinant human HDAC1, sequence (Q13547 whole entry): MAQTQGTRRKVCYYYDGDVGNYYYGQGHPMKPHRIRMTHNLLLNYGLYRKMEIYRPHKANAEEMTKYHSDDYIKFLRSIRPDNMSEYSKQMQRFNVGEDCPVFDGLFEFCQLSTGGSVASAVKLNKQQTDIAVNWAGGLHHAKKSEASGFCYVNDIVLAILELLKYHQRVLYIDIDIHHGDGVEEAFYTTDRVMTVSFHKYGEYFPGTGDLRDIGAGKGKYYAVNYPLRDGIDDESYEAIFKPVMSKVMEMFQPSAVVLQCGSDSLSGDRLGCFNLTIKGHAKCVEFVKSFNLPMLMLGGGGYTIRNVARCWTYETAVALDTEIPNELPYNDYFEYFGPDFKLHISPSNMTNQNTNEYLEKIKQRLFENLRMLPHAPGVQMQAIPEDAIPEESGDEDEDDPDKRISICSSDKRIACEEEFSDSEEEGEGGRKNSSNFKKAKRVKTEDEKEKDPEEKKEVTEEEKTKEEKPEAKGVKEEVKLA

[5] = target: recombinant human HDAC9 (Homo sapiens, UniProt Q9UKV0); test: biochemical
recombinant human HDAC9, sequence (Q9UKV0 whole entry): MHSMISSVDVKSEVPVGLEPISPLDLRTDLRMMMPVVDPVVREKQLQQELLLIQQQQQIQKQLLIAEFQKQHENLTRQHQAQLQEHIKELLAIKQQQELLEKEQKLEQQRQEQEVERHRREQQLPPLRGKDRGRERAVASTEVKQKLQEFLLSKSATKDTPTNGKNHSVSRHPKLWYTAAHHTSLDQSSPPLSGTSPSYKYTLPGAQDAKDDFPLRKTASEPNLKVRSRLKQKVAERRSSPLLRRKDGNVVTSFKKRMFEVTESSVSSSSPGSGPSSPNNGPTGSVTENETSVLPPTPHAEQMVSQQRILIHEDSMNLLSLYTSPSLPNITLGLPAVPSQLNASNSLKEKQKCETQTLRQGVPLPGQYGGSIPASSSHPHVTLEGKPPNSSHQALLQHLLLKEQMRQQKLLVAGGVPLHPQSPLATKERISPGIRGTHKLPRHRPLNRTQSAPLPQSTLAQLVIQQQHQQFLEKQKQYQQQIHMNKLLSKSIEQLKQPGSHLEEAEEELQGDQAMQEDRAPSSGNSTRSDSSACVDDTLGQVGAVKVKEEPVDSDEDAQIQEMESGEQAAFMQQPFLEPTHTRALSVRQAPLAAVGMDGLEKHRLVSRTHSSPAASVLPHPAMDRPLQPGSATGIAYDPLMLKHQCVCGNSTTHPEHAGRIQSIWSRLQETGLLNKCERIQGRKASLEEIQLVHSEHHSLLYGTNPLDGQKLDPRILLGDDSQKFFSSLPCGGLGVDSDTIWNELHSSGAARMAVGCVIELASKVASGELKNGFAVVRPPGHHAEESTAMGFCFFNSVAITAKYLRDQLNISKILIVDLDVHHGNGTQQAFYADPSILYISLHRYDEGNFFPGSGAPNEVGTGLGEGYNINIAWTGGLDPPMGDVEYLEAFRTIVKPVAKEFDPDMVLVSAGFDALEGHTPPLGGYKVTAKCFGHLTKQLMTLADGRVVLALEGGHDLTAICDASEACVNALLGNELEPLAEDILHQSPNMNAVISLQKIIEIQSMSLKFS

[6] = target: recombinant human HDAC4 (Homo sapiens, UniProt P56524); test: biochemical; type: biochemical
recombinant human HDAC4, sequence (P56524 whole entry): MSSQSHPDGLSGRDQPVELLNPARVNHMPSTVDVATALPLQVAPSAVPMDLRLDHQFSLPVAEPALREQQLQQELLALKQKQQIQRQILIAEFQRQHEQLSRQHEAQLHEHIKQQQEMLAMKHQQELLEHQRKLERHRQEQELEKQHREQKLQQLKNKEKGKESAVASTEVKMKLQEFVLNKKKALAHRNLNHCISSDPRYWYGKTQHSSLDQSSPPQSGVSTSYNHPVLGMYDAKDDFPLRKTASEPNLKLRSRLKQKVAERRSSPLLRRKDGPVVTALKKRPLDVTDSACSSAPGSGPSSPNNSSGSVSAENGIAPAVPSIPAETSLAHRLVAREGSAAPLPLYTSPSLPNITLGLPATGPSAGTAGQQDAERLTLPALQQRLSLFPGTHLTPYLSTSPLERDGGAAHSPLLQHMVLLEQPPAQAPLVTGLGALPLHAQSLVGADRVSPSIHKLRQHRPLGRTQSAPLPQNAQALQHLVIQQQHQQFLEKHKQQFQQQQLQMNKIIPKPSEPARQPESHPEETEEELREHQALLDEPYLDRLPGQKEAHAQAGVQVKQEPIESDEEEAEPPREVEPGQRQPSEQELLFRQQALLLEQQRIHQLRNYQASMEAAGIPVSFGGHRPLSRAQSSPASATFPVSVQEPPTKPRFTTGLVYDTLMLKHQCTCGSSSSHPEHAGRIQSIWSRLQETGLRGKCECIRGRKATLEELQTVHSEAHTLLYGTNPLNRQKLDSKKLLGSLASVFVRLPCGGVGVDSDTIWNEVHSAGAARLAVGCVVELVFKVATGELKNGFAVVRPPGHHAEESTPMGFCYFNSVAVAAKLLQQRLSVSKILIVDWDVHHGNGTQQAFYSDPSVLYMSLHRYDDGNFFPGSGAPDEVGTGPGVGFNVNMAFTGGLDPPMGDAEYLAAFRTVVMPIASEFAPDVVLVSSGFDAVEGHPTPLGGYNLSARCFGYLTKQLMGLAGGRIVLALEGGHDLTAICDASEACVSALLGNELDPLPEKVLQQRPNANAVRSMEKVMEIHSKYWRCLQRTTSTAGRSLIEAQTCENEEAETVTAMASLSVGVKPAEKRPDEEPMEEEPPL

[7] = target: T3, recombinant human HDAC7 (Homo sapiens, UniProt Q8WUI4); test: biochemical
T3 sequence (Q8WUI4 1-952): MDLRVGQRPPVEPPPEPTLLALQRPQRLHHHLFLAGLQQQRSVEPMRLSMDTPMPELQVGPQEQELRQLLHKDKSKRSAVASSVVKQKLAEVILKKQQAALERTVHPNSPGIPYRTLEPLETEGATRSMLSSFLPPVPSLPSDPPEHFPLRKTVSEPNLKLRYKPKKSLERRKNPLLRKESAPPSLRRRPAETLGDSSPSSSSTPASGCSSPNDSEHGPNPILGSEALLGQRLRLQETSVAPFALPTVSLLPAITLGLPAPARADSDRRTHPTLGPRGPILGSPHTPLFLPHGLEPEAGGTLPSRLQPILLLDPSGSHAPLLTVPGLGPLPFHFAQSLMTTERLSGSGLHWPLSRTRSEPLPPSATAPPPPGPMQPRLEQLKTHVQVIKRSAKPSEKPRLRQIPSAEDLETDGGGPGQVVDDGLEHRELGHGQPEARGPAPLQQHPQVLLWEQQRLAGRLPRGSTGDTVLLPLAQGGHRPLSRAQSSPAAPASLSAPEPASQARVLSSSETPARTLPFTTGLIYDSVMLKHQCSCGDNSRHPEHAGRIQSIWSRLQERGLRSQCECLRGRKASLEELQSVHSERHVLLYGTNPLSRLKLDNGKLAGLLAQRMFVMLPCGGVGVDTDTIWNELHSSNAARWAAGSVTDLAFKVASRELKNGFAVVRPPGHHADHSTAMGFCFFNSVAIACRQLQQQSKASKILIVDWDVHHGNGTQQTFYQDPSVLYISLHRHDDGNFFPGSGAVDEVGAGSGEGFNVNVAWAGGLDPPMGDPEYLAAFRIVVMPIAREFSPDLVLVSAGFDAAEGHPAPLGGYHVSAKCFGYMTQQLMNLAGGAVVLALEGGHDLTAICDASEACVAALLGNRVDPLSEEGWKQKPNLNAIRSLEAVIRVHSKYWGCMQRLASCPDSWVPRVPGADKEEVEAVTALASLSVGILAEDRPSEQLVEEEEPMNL

[8] = target: recombinant human HDAC2 (Homo sapiens, UniProt Q92769); test: Two-step fluorogenic HDAC inhibition assay, HDAC2; type: biochemical; conditions: for times less active against HDAC2 than against HDAC3/N-CoR2: natural/oxidized prodrug form, range given for HDAC1 and HDAC2 together
recombinant human HDAC2, sequence (Q92769 whole entry): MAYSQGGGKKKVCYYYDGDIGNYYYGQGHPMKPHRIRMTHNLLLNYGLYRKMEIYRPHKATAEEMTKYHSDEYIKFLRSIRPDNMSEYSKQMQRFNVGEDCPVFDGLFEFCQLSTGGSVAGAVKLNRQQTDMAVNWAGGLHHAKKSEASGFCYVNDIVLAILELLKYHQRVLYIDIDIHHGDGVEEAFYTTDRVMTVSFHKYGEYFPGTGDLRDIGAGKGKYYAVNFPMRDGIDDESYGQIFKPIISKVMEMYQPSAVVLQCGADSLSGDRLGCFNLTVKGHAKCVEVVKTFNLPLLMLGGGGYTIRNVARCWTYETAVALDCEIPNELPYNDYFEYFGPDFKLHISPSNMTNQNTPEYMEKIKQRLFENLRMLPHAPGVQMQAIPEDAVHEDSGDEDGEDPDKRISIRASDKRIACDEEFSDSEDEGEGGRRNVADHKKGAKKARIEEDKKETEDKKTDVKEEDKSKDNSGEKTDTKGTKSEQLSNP

[9] = target: HDAC3 (in complex with N-CoR2) (Homo sapiens, UniProt O15379); test: biochemical
HDAC3 (in complex with N-CoR2), sequence (O15379 whole entry): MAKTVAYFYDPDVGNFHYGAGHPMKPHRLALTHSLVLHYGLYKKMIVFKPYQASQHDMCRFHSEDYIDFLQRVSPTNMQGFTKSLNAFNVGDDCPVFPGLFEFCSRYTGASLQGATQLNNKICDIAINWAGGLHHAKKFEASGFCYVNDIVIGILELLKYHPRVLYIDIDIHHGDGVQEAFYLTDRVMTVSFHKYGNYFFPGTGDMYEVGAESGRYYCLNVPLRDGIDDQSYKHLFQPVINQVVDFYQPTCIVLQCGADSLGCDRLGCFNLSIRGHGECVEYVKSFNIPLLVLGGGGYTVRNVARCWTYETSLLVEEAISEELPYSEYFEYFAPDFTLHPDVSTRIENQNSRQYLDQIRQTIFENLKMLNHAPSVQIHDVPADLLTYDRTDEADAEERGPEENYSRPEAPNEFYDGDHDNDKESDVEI
HDAC3 (in complex with N-CoR2), sequence (Q9Y618 395-489 partner limits assumed): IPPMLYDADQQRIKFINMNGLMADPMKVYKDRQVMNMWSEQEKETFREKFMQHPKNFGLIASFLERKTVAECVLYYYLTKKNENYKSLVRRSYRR

Row | SMILES | GI50 (growth inhibition) [1] | IC50 [2] | potency towards HDAC6, times less than to HDAC1–3 [2] | IC50 [3] | fold less potent against HDAC8 than 2* [3] | inhibition of HDAC8, times weaker than the inhibition of HDAC1–3 [3] | IC50 [4] | times less active against HDAC1 than against HDAC3/N-CoR2 [4] | IC50 [5] | IC50 [6] | fold less potent against HDAC4 than 2* [6] | IC50 [7] | IC50 [8] | times less active against HDAC2 than against HDAC3/N-CoR2 [8] | IC50 [9] | inhibition of HDAC8, times weaker than the inhibition of HDAC1–3 ([3]; reduced form)
1 | CC[C@H](C)[C@H]1NC(=O)[C@H]2CSSCC/C=C/[C@H](CC(=O)N[C@H](CCSC)C(=O)N2)OC(=O)C[C@@H]1O [Compound 6, thailandepsin A] | low nanomolar concentrations | 0.38 µM | 30–100 times | 1.2 µM | 40–90 fold | 80–350 times | 0.014 µM | 80–450 times | 12 µM | 42 µM | 40–90 fold | 11 µM | 0.0035 µM | 80–450 times | 0.0048 µM | –
2 | CCCC[C@H]1NC(=O)C[C@H]2/C=C/CCSSC[C@@H](NC1=O)C(=O)N[C@H]([C@@H](C)CC)[C@@H](O)CC(=O)O2 [Compound 7, thailandepsin B] | low nanomolar concentrations | – | 30–100 times | – | – | – | – | 80–450 times | – | – | – | – | – | 80–450 times | – | 80–350 times
3 | C/C=C1\NC(=O)[C@H]2CSSCC/C=C/[C@H](CC(=O)N[C@H](C(C)C)C(=O)N2)OC(=O)[C@H](C(C)C)NC1=O [Compound 2, FK228, reference compound] | – | – | 30–100 times | – | – | – | 0.0053 µM | 80–450 times | – | 0.47 µM | – | 3.2 µM | – | 80–450 times | – | –
